Values of other authors in patent publication US20250114367A1, “METHOD OF TREATING HAIR LOSS DISORDERS” (Sun Pharmaceutical Industries, Inc., priority 2023, published 2025).

Test system: subjects with AA
Conditions: ritlecitinib 50 mg; up to 48 weeks; FIG. 13C; cited from earlier work

**Q.** With `C=CC(=O)N1C[C@H](Nc2ncnc3[nH]ccc23)CC[C@@H]1C` [ritlecitinib] as the compound, how does the “proportion of participants achieving SALT ≤20” value read?
**A.** The value was at most 50%.
